Measurements: patent US20240173325A1, “METHODS FOR TREATING SPINAL MUSCULAR ATROPHY” (Genentech, Inc., priority 2022, published 2024)
Like-named read-outs stand apart in the source and are kept apart here.

Legend:
clinical = assay: clinical; parameters: species or system human; settings: in vivo
Method: The fetal subject assigned to this treatment plan received risdiplam through the carrier after all basic organ systems of the fetal subject had substantially completed fundamental embryogenesis in its third trimester of development in a range of from about thirty-two and a half weeks to its delivery from the carrier at about thirty-eight and a half weeks gestation. During this period, risdiplam was administered to the fetal subject through a carrier treatment cycle in which a single daily dose of 5 mg of risdiplam was administered orally to the carrier of the fetal subject.
Risdiplam trough drug levels were obtained from the carrier and the subject as the neonatal subject at time points represented in Table 2A and Table 2B from 32.5 weeks gestation prior to administration of risdiplam to the carrier through 43 days post-delivery. The risdiplam drug levels detected in plasma (ng/mL) of the carrier and the neonatal subject were determined by liquid chromatography-tandem mass spectroscopy (LC-MS/MS).
Since it was determined that a level of the risdiplam in the cord blood of the neonatal subject was less than about 100 ng/mL or about 0.1 mg/L when the neonatal subject was bom, the neonatal treatment cycle was initiated. The neonatal treatment cycle began 8 days after birth (d8) and included administering risdiplam to the neonatal subject at a single daily dose of 0.15 mg/kg.
In addition, in Table 3, blood samples for risdiplam PK and PD were collected from the carrier prior to the first dose of the risdiplam and 24-hours post- dose of the risdiplam. PK/PD samples were collected from the carrier every two weeks for up to six weeks after delivery to assess risdiplam clearance. At the time of delivery, samples of umbilical cord blood and amniotic fluid were collected to assess risdiplam exposure to the fetal subject in utero. Collection of the cord blood and the amniotic fluid could have also included collection of the cord blood and the amniotic fluid during pregnancy of the carrier if an amniocentesis was deemed to be needed.

SMN protein [1] = assay: SMN protein levels in whole blood (Roche Elecsys immunoassay); format: in vivo, human
Method: Table 7A and Table 7B presents SMN protein levels in whole blood (measured in ng/mL) in the carrier and the subject as the fetal subject and the neonatal subject of this Example, and reference values are shown in Table 7C below. Table 7B is a continuation of Table 7A from 32.5 weeks gestation prior to administration of risdiplam to the carrier through 43 days post-delivery. SMN protein levels in the whole blood were performed using an immunoassay developed by Roche Diagnostics on the Elecsys® platform.

neurofilament = assay: Neurofilament light and phosphorylated heavy chain ELISA on plasma and serum; format: in vivo, human
Method: Neurofilament light and phosphorylated heavy chain assays were performed on plasma and serum samples using an ELISA assay, following the manufacturer's instructions (ProteinSimple, San Jose, CA, USA). Two runs were performed, each run having 3 aliquots run on the same plate and the mean value utilized. The average of the two runs was used for interpretation and in constructing FIG. 3 and FIG. 4.
The x-axis in FIG. 3 and FIG. 4 is associated with the date. The x-axis in FIG. 3 includes both prenatal dates (e.g., 32.5 WG or weeks gestation-37.6 WG) and postnatal dates or “PND” (e.g., d0-d43, referring to days post-birth of the fetal subject as the neonatal subject). The y- axis in FIG. 3 and FIG. 4 is associated with the mean neurofilament levels in blood (measured in pg/mL).
Further, in FIG. 3 and FIG. 4, “NF-L” refers to “neurofilament light chain,” which is a neuronal protein highly expressed in large caliber myelinated axons. NF-L levels increase in cerebrospinal fluid and blood proportionally to the degree of axonal damage in a variety of neurological disorders, including inflammatory, neurodegenerative, traumatic and cerebrovascular diseases. See Gaetani (2019) J. Neurol. Neurosurg. Psychiatry. 90(8):870-881. Additionally, “pNF-H” refers to the phosphorylated neurofilament heavy subunit (or phosphorylated NF-H). Further, as shown in FIG. 3 and FIG. 4, “Ser” refers to blood serum and “Pla” refers to blood plasma.

SMN protein [2] = settings: cited from earlier work
rat fetuses = settings: dams treated at about 1 mg/kg/day to about 7.5 mg/kg/day; cited from earlier work
[3] = test system: FMO1 and FMO3, CYPs 1A1, 2J2, 3A4, and 3A7; settings: cited from earlier work

Cc1cn2nc(-c3cc(=O)n4cc(N5CCNC6(CC6)C5)ccc4n3)cc(C)c2n1 [risdiplam, 7-(4,7-diazaspiro[2.5]octan-7-yl)-2-(2,8-dimethylimidazo[1,2-b]pyridazin-6-yl)-4H-pyrido[1,2-a]pyrimidin-4-one]
Risdiplam level in amniotic fluid (AF) (clinical; female, human): 5.09 ng/mL
Risdiplam level in plasma, venous (V) (clinical; female, human): 15.6 ng/mL
concentration at 43 d postnatal (clinical; female, human): 0.4 ng/mL
Risdiplam level in plasma (clinical; female, human, 20 d postnatal): 0.7 ng/mL
Risdiplam level in plasma (clinical; female, human, 29 d postnatal): 0.6 ng/mL
Kp (clinical; female, human, Amniotic fluid risdiplam level relative to carrier plasma venous level): ~0.33
Kp (clinical; female, human, Cord venous and arterial plasma risdiplam level relative to carrier plasma level): ~0.69
Level of risdiplam in cord blood (clinical; human): less than 100 ng/mL
Risdiplam level in cord plasma, arterial (A) (clinical; human): 10.4 ng/mL
Risdiplam level in cord plasma, venous (V) (clinical; human): 11.2 ng/mL
half-life (clinical; human): 46 h
Risdiplam level in plasma (clinical; human, 8 d postnatal): 0.6 ng/mL
concentration at 43 d postnatal (clinical; human, po, 0.15 mg/kg/day): 62 ng/mL
Risdiplam trough level in plasma (clinical): BLQ*
Placental transfer from carrier to fetal subject (clinical; po): crosses the placenta
SMN protein level in whole blood relative to reference amounts (SMN protein [1]; at d0, versus reference study (FIG. 2)): about two
SMN protein level in whole blood (SMN protein [1]; carrier, 32.5 WG (pre-risdiplam)): 7.7 ng/mL
SMN protein level in whole blood (SMN protein [1]; carrier, 36 WG): 6.3 ng/mL
SMN protein level in whole blood (SMN protein [1]; carrier, 38 WG): 6.0 ng/mL
SMN protein level in whole blood (SMN protein [1]; carrier, birth 38.5 WG): 4.0 ng/mL
SMN protein level in whole blood (SMN protein [1]; carrier, d 20 post birth): 5.0 ng/mL
SMN protein level in whole blood (SMN protein [1]; carrier, d 29 post birth): 5.1 ng/mL
SMN protein level in whole blood (SMN protein [1]; carrier, d 43 post birth): 4.6 ng/mL
Decline of SMN protein level (SMN protein [1]; carrier, from prenatal treatment until delivery): 48%
Increase of SMN protein level (SMN protein [1]; carrier, postpartum period): 15-28%
Increase of SMN protein level (SMN protein [1]; neonatal subject, at d43 following drug initiation on d8): 36%
SMN protein level in whole blood (SMN protein [1]; neonatal subject, birth 38.5 WG (cord)): 9.4 ng/mL
SMN protein level in whole blood (SMN protein [1]; neonatal subject, d 8, no drug since birth): 4.5 ng/mL
SMN protein level in whole blood (SMN protein [1]; neonatal subject, d 43, oral 0.15 mg/kg/day from d8): 6.1 ng/mL
pNF-H level in neonatal subject compared to the carrier (neurofilament; at delivery): about 10 fold
NF-L levels (neurofilament; carrier and neonatal subject, FIG. 3 and FIG. 4): low, with little change
Increase of post-partum pNF-H levels (neurofilament; carrier, 6-week observation period): approximately 2 fold
pNF-H level relative to lowest value in NURTURE study participants (neurofilament; neonatal subject): 35%
pNF-H level relative to NURTURE median value (20881) (neurofilament; neonatal subject versus pre-symptomatic SMN2X2 infants under 6 weeks): 1.4%
pNF-H level (neurofilament; neonatal subject, data point of FIG. 4 correlated to FIG. 5): 293 pg/mL
SMN protein level in whole blood, reference values (median, range) (SMN protein [2]; high dose 0.2 mg/kg/day, 4 W risdiplam): 5.9 (2.8-8.8) ng/mL
SMN protein level in whole blood, reference values (median, range) (SMN protein [2]; high dose 0.2 mg/kg/day, 12 M risdiplam): 5.7 (2.7-8.6) ng/mL
SMN protein level in whole blood, reference values (median, range) (SMN protein [2]; high dose 0.2 mg/kg/day, T0): T0: 2.5 (1.1-6.4) ng/mL
SMN protein level in whole blood, reference values (median, range) (SMN protein [2]; low dose 0.08 mg/kg/day, 4 W risdiplam): 4.5 (2.6-5.6) ng/mL
SMN protein level in whole blood, reference values (median, range) (SMN protein [2]; low dose 0.08 mg/kg/day, 12 M risdiplam): 3.0 (1.8-5.5) ng/mL
SMN protein level in whole blood, reference values (median, range) (SMN protein [2]; low dose 0.08 mg/kg/day, T0): T0: 1.3 (0.6-4.8) ng/mL
Findings in rat fetuses (rat fetuses): weight loss and minor differences in skeletal ossification
Activity of metabolites [3]: inactive
Metabolizing enzymes [3]: primarily metabolized by flavin monooxygenase 1 and 3 (FMO1 and FMO3) and also by CYPs 1A1, 2J2, 3A4, and 3A7
